The values that follow are results of earlier work, collected in patent US7517991B2, “N-sulfonylpiperidine cannabinoid receptor 1 antagonists” (Bristol-Myers Squibb Company, priority 2004, dated 2009).

The conditions of data set [1]: human subjects, 16 week trial period, Phase IIb.
The conditions of data set [2]: chronic administration for two weeks.

Each structure is given as a SMILES string. Where two headings read alike, the source gives them in different places.

As for `Cc1c(C(=O)NN2CCCCC2)nn(-c2ccc(Cl)cc2Cl)c1-c1ccc(Cl)cc1` [SR-141716], the body weight entry in data set [1] was “dose-dependently reduced body weight”.

For the molecule `Cc1c(C(=O)NN2CCCCC2)nn(-c2ccc(Cl)cc2Cl)c1-c1ccc(I)cc1` [AM-251], the body weight entry in data set [2] is “substantial body weight reduction”.
